Results taken from patent publication US9980973B2, “Bicyclic heterocycle compounds and their uses in therapy” (ASTEX THERAPEUTICS LIMITED, priority 2012, dated 2018).
Counter-ions that a name gives are not always drawn. Like-named read-outs stand apart in the source and are kept apart here.

Key:
[1] = target: T1, BIR3 domain of human XIAP (Homo sapiens, UniProt P98170); experiment: XIAP in vitro competitive displacement binding assay (fluorescence polarization); conditions: for inhibition at 0.04 µM: 1 h, PI at 0.04 μM, read-out: Xiap IC50 or PI μM (PI)
T1 construct: BIR3 domain of human XIAP (residues 252-350) fused to a His-tag; His-tag (cleaved yes); made in house; host or cells: Escherichia coli

[2] = system: EVSA-T (human breast carcinoma); experiment: Anti-proliferative activity, Alamar Blue assay, EVSA-T; type: cell-based
[3] = Homo sapiens, EVSA-T, read-out: EC50 in EVSA-T cell line assays
[4] = or at least 50% inhibition of the activity at 0.1 μM, read-out: IC50 in the XIAP assay
[5] = Homo sapiens, EVSA-T, 72 h, EVSA-T cells, 72 hours, Alamar Blue, read-out: EVSA-T prolif
[6] = plain number = IC50, average where more than one data point, read-out: Xiap IC50 or PI μM (IC50)

T1 sequence (P98170 252-350): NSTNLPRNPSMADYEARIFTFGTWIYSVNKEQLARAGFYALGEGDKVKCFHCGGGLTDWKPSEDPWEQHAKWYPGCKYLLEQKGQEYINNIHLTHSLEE

Row | Structure (SMILES) | inhibition at 0.04 µM [1] | EC50 ([2]; EVSA-T cells, 72 hours, Alamar Blue, dihydrochloride, read-out: EVSA-T prolif) | EC50 [2, 3] | IC50 [1, 4] | EC50 [2, 5] | IC50 [1, 6]
1 | C[C@@H]1CN(CC(=O)N2CC(C)(C)c3ncc(C(O)c4ccccc4F)cc32)[C@@H](CN2[C@H](C)COC[C@H]2C)CN1 (single isomer, unassigned) [Example 107, 2-[(2R,5R)-2-{[(3R,5R)-3,5-Dimethylmorpholin-4-yl]methyl}-5-methylpiperazin-1-yl]-1-{6-[(R or S)-(2-fluorophenyl)-(hydroxy)methyl]-3,3-dimethyl-1H,2H,3H-pyrrolo[3,2-b]pyridin-1-yl}ethan-1-one dihydrochloride] | 57% | 7.1 nM | < 1000 nM |  |  | 
2 | C[C@@H]1CN(CC(=O)N2CC(C)(C)c3ncc(Cc4ccc(F)cc4F)cc32)[C@@H](CN2CCOC[C@@]2(C)CO)CN1 [Example 58, 1-{6-[(2,4-Difluorophenyl)methyl]-3,3-dimethyl-1H,2H,3H-pyrrolo[3,2-b]pyridin-1-yl}-2-[(2R,5R)-2-{[(3R)-3-(hydroxymethyl)-3-methylmorpholin-4-l]methyl}-5-methylpiperazin-1-yl]ethan-1-one, dihydrochloride] | 51% |  | < 1000 nM | < 0.1 µM | 0.7 nM | 
3 | C[C@@H]1CN(CC(=O)N2CC(C)(C)c3ncc(Cc4ccc(F)cc4)cc32)[C@@H](CN2CCCC(F)(F)C2)CN1 [Example 3, 2-[(2R,5R)-2-[(3,3-Difluoropiperidin-1-yl)methyl]-5-methylpiperazin-1-yl]-1-{6-[(4-fluorophenyl)methyl]-3,3-dimethyl-1H,2H,3H-pyrrolo[3,2-b]pyridin-1-yl}ethan-1-one dihydrochloride] | 37% |  | < 1000 nM |  | 6.8 nM | 
4 | COC[C@]1(C)COCCN1C[C@H]1CN[C@H](C)CN1CC(=O)N1CC(C)(C)c2cnc(Cc3ccc(F)cc3F)cc21 [Example 97, 1-{6-[(2,4-Difluorophenyl)methyl]-3,3-dimethyl-1H,2H,3H-pyrrolo[3,2-c]pyridin-1-yl}-2-[(2R,5R)-2-{[(3R)-3-(methoxymethyl)-3-methylmorpholin-4-yl]methyl}-5-methylpiperazin-1-yl]ethan-1-one dihydrochloride] | 44% |  | < 1000 nM |  | 2.3 nM | 
5 | C[C@@H]1CN(CC(=O)N2CC(C)(C)c3ncc(Cc4ccc(F)cc4)cc32)[C@@H](CN2CCCNC(=O)C2)CN1 [Example 46, 4-{[(2R,5R)-1-(2-{6-[(4-Fluorophenyl)methyl]-3,3-dimethyl-1H,2H,3H-pyrrolo[3,2-b]pyridin-1-yl}-2-oxoethyl)-5-methylpiperazin-2-yl]methyl}-1,4-diazepan-2-one, dihydrochloride] |  |  | < 1000 nM |  | 36 nM | 0.13 µM
6 | CCCC(O)c1cnc2c(c1)N(C(=O)CN1C[C@@H](C)NC[C@@H]1CN1[C@H](C)COC[C@H]1C)CC2(C)C (single isomer, unassigned) [Example 101, 2-[(2R,5R)-2-{[(3R,5R)-3,5-Dimethylmorpholin-4-yl]methyl}-5-methylpiperazin-1-yl]-1-[6-(1-(R or S)-hydroxybutyl)-3,3-dimethyl-1H,2H,3H-pyrrolo[3,2-b]pyridin-1-yl]ethan-1-one dihydrochloride] | 47% |  | < 1000 nM |  | 31 nM | 
7 | C[C@@H]1CN(CC(=O)N2CC(C)(C)c3nnc(Cc4ccc(F)cc4F)cc32)[C@@H](CN2[C@H](C)COC[C@H]2C)CN1 [Example 88, 1-{3-[(2,4-Difluorophenyl)methyl]-7,7-dimethyl-5H,6H,7H-pyrrolo[3,2-c]pyridazin-5-yl}-2-[(2R,5R)-2-{[(3R,5R)-3,5-dimethymorpholin-4-yl]methyl}-5-methylpiperazin-1-yl]ethan-1-one dihydrochloride] |  |  | < 1000 nM |  | 0.24 nM | 0.22 µM
8 | COC[C@@]1(C)COCCN1C[C@H]1CN[C@H](C)CN1CC(=O)N1CC(C)(C)c2cnc(Cc3ccc(F)cc3F)cc21 [Example 98, 1-{6-[(2,4-Difluorophenyl)methyl]-3,3-dimethyl-1H,2H,3H-pyrrolo[3,2-c]pyridin-1-yl}-2-[(2R,5R)-2-{[(3S)-3-(methoxymethyl)-3-methylmorpholin-4-yl]methyl}-5-methylpiperazin-1-yl]ethan-1-one dihydrochloride] | 62% |  | < 1000 nM | < 0.1 µM | 7.3 nM | 
9 | CCC(F)(F)c1cnc2c(c1)N(C(=O)CN1C[C@@H](C)NC[C@@H]1CN1[C@H](C)COC[C@H]1C)CC2(C)C [Example 43, 1-[6-(1,1-Difluoropropyl)-3,3-dimethyl-1H,2H,3H-pyrrolo[3,2-b]pyridin-1-yl]-2-[(2R,5R)-2-{[(3R,5R)-3,5-dimethylmorpholin-4-yl]methyl}-5-methylpiperazin-1-yl]ethan-1-one, dihydrochloride] | 62% |  | < 1000 nM |  | 8.3 nM | 
10 | C[C@@H]1CN(CC(=O)N2CC(C)(C)c3ncc(Cc4ccc(F)cc4)cc32)[C@@H](CN2CCC[C@H]2CO)CN1 [Example 12, 1-{6-[(4-Fluorophenyl)methyl]-3,3-dimethyl-1H,2H,3H-pyrrolo[3,2-b]pyridin-1-yl}-2-[(2R,5R)-2-{[(2S)-2-(hydroxymethyl)pyrrolidin-1-yl]methyl}-5-methylpiperazin-1-yl]ethan-1-one dihydrochloride] |  |  | < 1000 nM |  | 1.6 nM | 0.15 µM
11 | CC1COCCN1C[C@H]1CN[C@H](C)CN1CC(=O)N1CC(C)(C)c2ccc(Cc3ccc(F)cc3)cc21 (stereo partly drawn) [Example 45, 1-{6-[(4-Fluorophenyl)methyl]-3,3-dimethyl-2,3-dihydro-1H-indol-1-yl}-2-[(2R,5R)-5-methyl-2-{[(3R)-3-methylmorpholin-4-yl]methyl}piperazin-1-yl]ethan-1-one, dihydrochloride] | 52% |  | < 1000 nM |  | 3.5 nM | 
12 | CCCC(F)(F)c1cc2c(cn1)C(C)(C)CN2C(=O)CN1C[C@@H](C)NC[C@@H]1CN1CCOC[C@]1(C)CO (single isomer, unassigned) [Example 69, dihydrochloride] | 71% |  | < 1000 nM |  | 5.6 nM | 
13 | C[C@@H]1CN(CC(=O)N2CC(C)(C)c3cnc(Cc4ccc(F)cc4F)cc32)[C@@H](CN2CCOC[C@@]2(C)CO)CN1 (single isomer, unassigned) [Example 67, dihydrochloride] | 65% |  | < 1000 nM |  | 3.7 nM | 
14 | C[C@@H]1CN(CC(=O)N2CC(C)(C)c3nnc(Cc4ccc(F)cc4)cc32)[C@@H](CN2[C@H](C)COC[C@H]2C)CN1 [Example 87, 2-[(2R,5R)-2-{[(3R,5R)-3,5-Dimethylmorpholin-4-yl]methyl}-5-methylpiperazin-1-yl]-1-{3-[(4-fluorophenyl)methyl]-7,7-dimethyl-5H,6H,7H-pyrrolo[3,2-c]pyridazin-5-yl}ethan-1-one dihydrochloride] |  |  | < 1000 nM |  | 0.66 nM | 0.14 µM
15 | COC[C@@H]1COCCN1C[C@H]1CN[C@H](C)CN1CC(=O)N1CC(C)(C)c2ncc(Cc3ccc(F)cc3)cc21 [Example 1, 1-{6-[(4-Fluorophenyl)methyl]-3,3-dimethyl-1H,2H,3H-pyrrolo[3,2-b]pyridin-1-yl}-2-[(2R,5R)-2-{[(3R)-3-(methoxymethyl)morpholin-4-yl]methyl}-5-methylpiperazin-1-yl]ethan-1-one dihydrochloride] | 35% |  | < 1000 nM |  | 2.9 nM | 
16 | C[C@@H]1CN(CC(=O)N2CC(C)(C)c3ncc(Cc4ccc(F)cc4)cc32)[C@@H](CN2CCOC[C@H]2CF)CN1 [Example 19, 2-[(2R,5R)-2-{[(3S)-3-(Fluoromethyl)morpholin-4-yl]methyl}-5-methylpiperazin-1-yl]-1-{6-[(4-fluorophenyl)methyl]-3,3-dimethyl-1H,2H,3H-pyrrolo[3,2-b]pyridin-1-yl}ethan-1-one dihydrochloride] | 43% |  | < 1000 nM |  | 0.65 nM | 
17 | C[C@@H]1CN(CC(=O)N2CC(C)(C)c3ncc(Cc4ccc(F)cc4)cc32)[C@@H](CN2C[C@H](C)NC(=O)[C@H]2C)CN1 [Example 48, (3R,6S)-4-{[(2R,5R)-1-(2-(6-[(4-Fluorophenyl)methyl]-3,3-dimethyl-1H,2H,3H-pyrrolo[3,2-b]pyridin-1-yl}-2-oxoethyl)-5-methylpiperazin-2-yl]methyl}-3,6-dimethylpiperazin-2-one, dihydrochloride] | 49% |  | < 1000 nM |  | 4.3 nM | 
18 | C[C@@H]1CN(CC(=O)N2CC(C)(C)c3ncc(Cc4ccc(F)cc4)cc32)[C@@H](CN2C[C@@H]3C[C@H]2CO3)CN1 [Example 7, 1-{6-[(4-Fluorophenyl)methyl]-3,3-dimethyl-1H,2H,3H-pyrrolo[3,2-b]pyridin-1-yl}-2-[(2R,5R)-5-methyl-2-[(1S,4S)-2-oxa-5-azabicyclo[2.2.1]heptan-5-ylmethyl]piperazin-1-yl]ethan-1-one dihydrochloride] |  |  | < 1000 nM |  | 6.2 nM | 0.16 µM
19 | C[C@@H]1CN(CC(=O)N2CC(C)(C)c3ncc(Cc4ccccc4)cc32)[C@@H](CN2[C@H](C)COC[C@H]2C)CN1 [Example 29, 1-{6-Benzyl-3,3-dimethyl-1H,2H,3H-pyrrolo[3,2-b]pyridin-1-yl}-2-[(2R,5R)-2-{[(3R,5R)-3,5-dimethylmorpholin-4-yl]methyl}-5-methylpiperazin-1-yl]ethan-1-one dihydrochloride] | 47% |  | < 1000 nM |  | 0.4 nM | 
